Molecular target: catalytic domain 2 (CD2) of HDAC6 (Homo sapiens (Human), UniProt Q9UBN7)
Assay: Cellular target engagement assay - NanoBRET
Format: cell-based
Details: NanoLuc-HDAC6(CD2) in HEK293T cells, 2 hours, read-out: IC50 (HDAC6(CD2) interaction)
Procedure: NanoBRET target engagement was performed against the catalytic domain 2 (CD2) of HDAC6, with minor modifications of kit manufacturer protocol (Promega). Expression of exogenous NanoLuc-HDAC6(CD2) fusion and in HEK293T was achieved following transient transfection with FuGENE HD Transfection Reagent (Promega). The intracellular target engagement assay on HDAC6(CD2) was performed in a 384-well plate format with 8,000 cells per well and a tracer concentration of 0.125 μM or 0.600 μM for HDAC6(CD2). Compounds (dissolved in 100% DMSO) or DMSO (vehicle) were added either manually by diluting them in culture medium at 8× final assay concentration and then adding 5 μL to assay plate or in an automated way by adding […] compound to 5 μL OptiMEM without phenol red (Gibco) using the Echo650 (Labcyte). Tracer solution was added to the cells before seeding 35 μL cell/tracer mixture in the assay plate. The final reaction volume was 40 μL, final DMSO concentration was 1.4% (manual compound addition) or 1.25% (automated compound addition). Assay plates were incubated at 37° C. in a humidified atmosphere containing 5% C02 for 2 hours. The NanoBRET Nano-glo Substrate/Inhibitor was prepared by diluting NanoBRET Nano-Glo Substrate (1:332) and Extracellular Inhibitor (1:1000) in assay medium (Promega). […] BRET ratios were calculated from acceptor/donor signal ratio (mBRET=acceptor/donor*1000) and normalized for each plate. Percentage inhibition was calculated by setting the mBRET obtained with cells without tracer to 100%, while the mBRET obtained with uninhibited cells with tracer was set to 0%. IC50-values were calculated from the percentage inhibition with the log(inhibitor) vs. response—Variable slope (four parameters) nonlinear regression in GraphPad Prism software.

Sequence of catalytic domain 2 (CD2) of HDAC6 (Q9UBN7 482-800): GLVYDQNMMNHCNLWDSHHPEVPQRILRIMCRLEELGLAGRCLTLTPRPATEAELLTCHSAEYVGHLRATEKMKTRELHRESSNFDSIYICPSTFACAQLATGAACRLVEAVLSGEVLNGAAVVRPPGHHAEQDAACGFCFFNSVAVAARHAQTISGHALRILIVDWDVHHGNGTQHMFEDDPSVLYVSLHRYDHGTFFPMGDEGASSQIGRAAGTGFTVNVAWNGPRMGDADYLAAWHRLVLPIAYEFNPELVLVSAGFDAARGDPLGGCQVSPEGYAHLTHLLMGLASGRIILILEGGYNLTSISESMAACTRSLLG

## CC(NC(=O)CO)c1ccc(C(=O)CSc2nc3cnc(C(F)(F)F)cc3o2)s1 (stereo in doubt) [Example 129, (S)-2-hydroxy-N-(1-(5-(2-((6-(trifluoromethyl)oxazolo[4,5-c]pyridin-2-yl)thio)acetyl)thiophen-2-yl)ethyl)acetamide]
  IC50: ≤ 100 nM

## O=C(CSc1nc(C(F)(F)F)nc2ncccc12)c1ccc(CN2CCC(O)C2=O)s1 (stereo in doubt) [Example 156, (R)-3-hydroxy-1-((5-(2-((2-(trifluoromethyl)pyrido[2,3-d]pyrimidin-4-yl)thio)acetyl)thiophen-2-yl)methyl)pyrrolidin-2-one]
  IC50: ≤ 100 nM

## Cn1ncc2c(SCC(=O)c3ccc(CNC(=O)C(O)C(F)(F)F)s3)ncnc21 (stereo not shown) [Compound 42, 3,3,3-trifluoro-2-hydroxy-N-((5-(2-((1-methyl-1H-pyrazolo[3,4-d]pyrimidin-4-yl)thio)acetyl)thiophen-2-yl)methyl)propanamide]
  IC50: 500 to 1000 nM

## O=C(CSc1nc2nc(C(F)(F)F)ccc2o1)c1ccc(CNC(=O)C2(O)CC2)s1 [Compound 45, 1-hydroxy-N-((5-(2-((5-(trifluoromethyl)oxazolo[4,5-b]159yrrolid-2-yl)thio)acetyl)thiophen-2-yl)methyl)cyclopropane-1-carboxamide]
  IC50: ≤ 100 nM

## Cn1cc2c(SCC(=O)c3ccc(CNC(=O)C(O)C(F)(F)F)s3)nc(C(F)(F)F)nc2n1 (stereo not shown) [Compound 46, 3,3,3-trifluoro-2-hydroxy-N-((5-(2-((2-methyl-6-(trifluoromethyl)-2H-pyrazolo[3,4-d]pyrimidin-4-yl)thio)acetyl)thiophen-2-yl)methyl)propanamide]
  IC50: ≤ 100 nM

## O=C(CSc1nc(C(F)(F)F)nc2ccc(N3CCOCC3)cc12)c1ccc(CNC(=O)C2(O)CC2)s1 [Compound 47, 1-hydroxy-N-((5-(2-((6-morpholino-2-(trifluoromethyl)quinazolin-4-yl)thio)acetyl)thiophen-2-yl)methyl)cyclopropane-1-carboxamide]
  IC50: 100 to 500 nM

## Cn1cc2c(SCC(=O)c3ccc(CNC(=O)C(C)(C)O)s3)nc(C(F)(F)F)nc2n1 [Compound 48, 2-hydroxy-2-methyl-N-((5-(2-((2-methyl-6-(trifluoromethyl)-2H-pyrazolo[3,4-d]pyrimidin-4-yl)thio)acetyl)thiophen-2-yl)methyl)propanamide]
  IC50: ≤ 100 nM

## Cn1cc2c(SCC(=O)c3ccc(CNC(=O)C4(O)CC4)s3)nc(C(F)(F)F)nc2n1 [Compound 49, 1-hydroxy-N-((5-(2-((2-methyl-6-(trifluoromethyl)-2H-pyrazolo[3,4-d]pyrimidin-4-yl)thio)acetyl)thiophen-2-yl)methyl)cyclopropane-1-carboxamide]
  IC50: ≤ 100 nM

## COc1ccc2nc(C)nc(SCC(=O)c3ccc(CNC(=O)C4(O)CC4)s3)c2c1 [Compound 50, 1-hydroxy-N-((5-(2-((6-methoxy-2-methylquinazolin-4-yl)thio)acetyl)thiophen-2-yl)methyl)cyclopropane-1-carboxamide]
  IC50: 100 to 500 nM

## Cn1ncc2c(SCC(=O)c3ccc(CNC(=O)C(C)(C)O)s3)ncnc21 [Compound 52, 2-hydroxy-2-methyl-N-((5-(2-((1-methyl-1H-pyrazolo[3,4-d]pyrimidin-4-yl)thio)acetyl)thiophen-2-yl)methyl)propanamide]
  IC50: 500 to 1000 nM

## CCc1nc(SCC(=O)c2ccc(CNC(=O)CO)s2)c2ccccc2n1 [Compound 62, N-((5-(2-((2-ethylquinazolin-4-yl)thio)acetyl)thiophen-2-yl)methyl)-2-hydroxyacetamide]
  IC50: ≤ 100 nM

## Cc1nc(SCC(=O)c2ccc(CNC(=O)CO)s2)c2cn(C)nc2n1 [Compound 65, N-((5-(2-((2,6-dimethyl-2H-pyrazolo[3,4-d]pyrimidin-4-yl)thio)acetyl)thiophen-2-yl)methyl)-2-hydroxyacetamide]
  IC50: 500 to 1000 nM

## Cc1nc(SCC(=O)c2ccc(CNC(=O)CO)s2)c2ccccc2n1 [Compound 66, 2-hydroxy-N-((5-(2-((2-methylquinazolin-4-yl)thio)acetyl)thiophen-2-yl)methyl)acetamide]
  IC50: ≤ 100 nM

— patent US20250051319A1 (AUGUSTINE THERAPEUTICS, priority 2021, published 2025)
